From PubChem BioAssay AID624129 (Sanford-Burnham Center for Chemical Genomics, 2012)
Activity calls are given as the source filed them. How the calls were made is not given here.

What was measured:
Experiment in all cases: potency against CXCR6 with APJ panel – cell-based, beta-arrestin, DiscoveRx, uHTS hits, dose response (AID 624129)
[1] = molecular target: C-C chemokine receptor type 6 (Homo sapiens) (UniProt P51684); settings: CXCR6 beta-arrestin (DiscoveRx) antagonist cell assay
[2] = molecular target: Beta-galactosidase (Escherichia coli) (UniProt Q8VNN2); settings: CXCR6 beta-arrestin (DiscoveRx) antagonist cell assay, b-galactosidase
Beta-galactosidase (Escherichia coli), sequence (Q8VNN2 whole entry, looked up): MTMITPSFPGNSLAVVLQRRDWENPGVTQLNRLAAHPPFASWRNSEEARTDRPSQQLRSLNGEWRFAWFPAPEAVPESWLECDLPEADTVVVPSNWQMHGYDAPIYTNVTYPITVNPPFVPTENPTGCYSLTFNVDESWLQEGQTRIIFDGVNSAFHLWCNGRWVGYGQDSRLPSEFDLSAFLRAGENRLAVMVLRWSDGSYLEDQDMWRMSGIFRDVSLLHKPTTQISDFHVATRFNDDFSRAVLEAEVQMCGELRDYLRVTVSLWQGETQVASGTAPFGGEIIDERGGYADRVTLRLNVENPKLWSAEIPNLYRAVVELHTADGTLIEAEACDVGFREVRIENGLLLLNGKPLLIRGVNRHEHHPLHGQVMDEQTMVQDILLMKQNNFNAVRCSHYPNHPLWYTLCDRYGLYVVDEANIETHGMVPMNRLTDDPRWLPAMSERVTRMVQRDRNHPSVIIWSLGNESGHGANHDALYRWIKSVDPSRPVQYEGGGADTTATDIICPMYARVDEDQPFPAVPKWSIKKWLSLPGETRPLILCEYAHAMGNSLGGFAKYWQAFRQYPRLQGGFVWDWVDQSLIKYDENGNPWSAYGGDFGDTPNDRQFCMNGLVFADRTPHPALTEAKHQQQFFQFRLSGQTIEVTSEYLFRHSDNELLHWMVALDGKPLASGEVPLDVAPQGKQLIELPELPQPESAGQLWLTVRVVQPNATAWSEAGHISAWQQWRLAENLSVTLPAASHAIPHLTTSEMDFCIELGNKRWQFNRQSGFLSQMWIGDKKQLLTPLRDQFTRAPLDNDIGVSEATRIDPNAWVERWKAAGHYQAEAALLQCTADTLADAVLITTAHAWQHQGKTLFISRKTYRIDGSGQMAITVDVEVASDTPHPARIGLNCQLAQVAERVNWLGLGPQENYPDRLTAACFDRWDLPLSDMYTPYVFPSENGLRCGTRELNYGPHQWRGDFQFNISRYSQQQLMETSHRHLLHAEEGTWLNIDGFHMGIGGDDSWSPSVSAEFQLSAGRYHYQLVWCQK

[3] = molecular target: Apelin receptor (Homo sapiens) (UniProt P35414); settings: CXCR6 beta-arrestin (DiscoveRx) antagonist cell assay, APJ
[4] = molecular target: C-X-C chemokine receptor type 6 (Homo sapiens) (UniProt O00574); settings: CXCR6 beta-arrestin (DiscoveRx) antagonist cell assay; for inhibition: CXCR6, run 1, dose range 2, at 80 µM (top of the series)
C-X-C chemokine receptor type 6 (Homo sapiens), sequence (O00574 whole entry, looked up): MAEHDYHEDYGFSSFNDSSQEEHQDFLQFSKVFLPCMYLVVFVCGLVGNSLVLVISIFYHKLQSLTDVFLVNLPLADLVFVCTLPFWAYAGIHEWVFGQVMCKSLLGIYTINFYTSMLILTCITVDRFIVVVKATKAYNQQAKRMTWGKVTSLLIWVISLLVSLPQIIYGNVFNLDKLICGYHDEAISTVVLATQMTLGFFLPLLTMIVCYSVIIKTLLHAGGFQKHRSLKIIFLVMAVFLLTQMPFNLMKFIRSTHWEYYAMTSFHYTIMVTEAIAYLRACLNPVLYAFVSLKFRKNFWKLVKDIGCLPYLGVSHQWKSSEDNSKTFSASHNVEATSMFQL

[5] = CCR6, dose range 1, mean IC50 across replicates
[6] = dose range 1, mean IC50 across replicates
[7] = CXCR6, dose range 1, mean IC50 across replicates

IC50 ([1]; CCR6, dose range 1) [µM] | IC50 [1, 5] [µM] | IC50 ([1]; CCR6, run 2, dose range 1) [µM] | IC50 ([2]; dose range 1) | IC50 [2, 6] [µM] | IC50 ([3]; dose range 1) | IC50 [3, 6] [µM] | IC50 ([3]; run 2, dose range 1) [µM] | IC50 ([3]; run 3, dose range 1) [µM] | IC50 ([4]; CXCR6, dose range 1) | IC50 [4, 7] [µM] | IC50 ([4]; CXCR6, run 1, dose range 2) [µM] | IC50 ([4]; CXCR6, run 2, dose range 1) [µM] | IC50 ([4]; CXCR6, run 2, dose range 2) [µM] | inhibition [4] [%] | Compound
3.92 | 3.98 | 4.05 | > 80 µM (inactive) | > 80 | 8.04 µM | 7.02 | 6.89 | 6.14 | 5.57 µM | 5.59 | 5.41 | 4.23 | 7.14 |  | COc1ccc(C[C@@H]2OC3(C=CC(=O)C=C3)O[C@H]2Cc2ccc(OC)cc2)cc1
4.29 | 4.53 | 4.78 | > 80 µM (inactive) | > 80 | 3.1 µM | 3.6 | 3.87 | 3.84 |  | 4.08 | 5.5 | 3.49 | 3.25 |  | O=C(Nc1nnc(SCc2ccc(F)cc2)s1)c1ccccn1
10.3 | 11.1 | 11.9 | > 80 µM (inactive) | > 80 | 17.2 µM | 16.8 | 15.2 | 17.9 | inactive | 12.6 |  | 10.2 |  | 124 | CCC(=O)OCOc1ccc(/C=C2/CCC(CN(C)C)C2=O)cc1 (centres undefined)
6.91 | 7.21 | 7.51 | > 80 µM (inactive) | > 80 | 12 µM | 11 | 11.4 | 9.67 | 10.8 µM | 8.3 |  | 5.84 |  | 122 | O=C1C=CC(=O)N1Cc1ccccc1
4.22 | 5.29 | 6.36 | > 80 µM (inactive) | > 80 | 4.54 µM | 5.35 | 6.22 | 5.31 | 10.7 µM | 6.17 | 4.06 | 6.29 | 3.6 |  | O=C(CSc1cccc2cccnc12)N1CCCC1
7.84 | 7.29 | 6.75 | > 80 µM (inactive) | > 80 | 5.81 µM | 8.52 | 9.7 | 10 | 9.66 µM | 6.87 | 3.62 | 7.93 | 6.29 |  | NNc1nc(-c2ccccc2)cc(-c2ccccc2O)n1
16.9 | 24.1 | 31.4 | > 80 µM (inactive) | > 80 | 5.2 µM | 9.29 | 10.7 | 12 | inactive | 15.7 |  | 18.6 |  | 80.7 | COC(CNC(=O)c1cc(C(=O)c2c(-c3c(Cl)cccc3Cl)noc2C)c[nH]1)OC
3.32 | 4.21 | 5.09 | > 80 µM (inactive) | > 80 | 3.05 µM | 3.73 | 4.26 | 3.89 | 5 µM | 4 | 3.2 | 4.65 | 3.15 |  | O=[N+]([O-])c1ccc(Sc2cccc3cccnc23)c([N+](=O)[O-])c1
 | 37.4 | 37.4 | inactive | 64.7 | 15.7 µM | 28.9 | 33.6 | 37.4 | inactive | 14.5 |  | 13.1 |  | 93.2 | O=[N+]([O-])c1cc(Cc2ccccc2)cc(C=Nc2ccc(N3CCOCC3)cc2)c1O
1.27 | 1.51 | 1.75 | > 80 µM (inactive) | > 80 | 3.31 µM | 4.62 | 5.92 | > 80 | 1.57 µM | 1.48 |  | 1.38 |  | 105 | Cc1ccccc1Oc1cc(-n2ncc(Cl)c(Cl)c2=O)ncn1
 | > 80 | > 80 | > 80 µM (inactive) | > 80 |  | > 80 | > 80 | > 80 | > 80 µM (inactive) | > 80 |  | > 80 |  | -24.2 | CC(=O)OCCCNc1cc(Sc2ccc(C)cc2)c2nonc2c1[N+](=O)[O-]
 | 9.06 | 9.06 | > 80 µM (inactive) | > 80 | 22.8 µM | 14.7 | 12.2 | 9.18 | 7.44 µM | 6.98 |  | 6.53 |  | 28.7 | Cc1ccc(-c2oc3ccccc3c(=O)c2O)cc1
 | > 80 | > 80 | > 80 µM (inactive) | > 80 |  | > 80 | > 80 | > 80 | > 80 µM (inactive) | > 80 |  | > 80 |  | -64.9 | O=[N+]([O-])c1cc([N+](=O)[O-])c2cc3ccccc3nc2c1
20.7 | 20.6 | 20.6 | > 80 µM (inactive) | > 80 | 21.8 µM | 24.8 | 27.8 | > 80 | inactive | 20.7 |  | 19.2 |  | 100 | O=C(CN1CCN(S(=O)(=O)c2ccc(Br)cc2)CC1)Nc1ccc2c(c1)OCO2
3.45 | 4.03 | 4.62 | > 80 µM (inactive) | > 80 | 4.36 µM | 5.15 | 4.59 | 6.51 | 3.23 µM | 3.7 | 3.35 | 4.11 | 4.09 |  | COc1cc(/C=C/c2ccc3cccc(O)c3n2)cc(OC)c1OC
7.47 | 7.42 | 7.37 | > 80 µM (inactive) | > 80 | inactive | 64.5 | 57.4 | > 80 | inactive | 12 | 5.63 | 27.7 | 8.28 |  | Fc1ccc(Sc2nc(-c3ccccc3)nnc2C(F)(F)F)cc1
12.2 | 13.3 | 14.3 | > 80 µM (inactive) | > 80 | 18 µM | 19.1 | 17 | 22.2 | inactive | 13.8 |  | 11.3 |  | 113 | O=[N+]([O-])c1c(Nc2cccc(O)c2)cc(Cl)c2nonc12
13.2 | 34.3 | 55.4 | > 80 µM (inactive) | > 80 | 19 µM | 27.6 | 24.9 | 38.9 | inactive | 18.3 |  | 17.4 |  | 56.2 | O=C(c1nnsc1S(=O)c1ccc(Cl)cc1)N1CCOCC1 (centres undefined)
